According to PubChem BioAssay AID330 (DTP/NCI, 2004):
Values joined by “and” are separate entries in the source; they are usually repeats but may differ in a detail not shown here. Equal entries are not always repeated. Inconclusive results and toxic doses are left out. The calls were made as follows: active = survival T/C of 150% or more; inactive = T/C below 125% in these data.

System: P388 leukemia ip, CD2F1 mice, survival T/C
Test: NCI In Vivo Anticancer Drug Screen. Data for tumor model P388 Leukemia (intraperitoneal) in CD2F1 (CDF1) mice
Conditions: endpoint: median survival time, higher = longer survival
How it was run: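 Mice carrying the transplanted tumor received test compound or vehicle. Survival was recorded in each group, and the value is the treated-group measurement divided by that of the vehicle-treated control group.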

[1] = dose: 50.0 mg/kg/injection, schedule: Q01DX009 (ip), vehicle: Klucel (hydroxypropylcellulose) (HPC)
[2] = dose: 100.0 mg/kg/injection, schedule: Q01DX009 (ip), vehicle: Klucel (hydroxypropylcellulose) (HPC)
[3] = dose: 200.0 mg/kg/injection, schedule: Q01DX009 (ip), vehicle: Klucel (hydroxypropylcellulose) (HPC)
[4] = dose: 1.56 mg/kg/injection, schedule: Q01DX009 (ip), vehicle: saline
[5] = dose: 3.12 mg/kg/injection, schedule: Q01DX009 (ip), vehicle: saline
[6] = dose: 6.25 mg/kg/injection, schedule: Q01DX009 (ip), vehicle: saline
[7] = dose: 12.5 mg/kg/injection, schedule: Q01DX009 (ip), vehicle: saline
[8] = dose: 50.0 mg/kg/injection, schedule: Q01DX009 (ip), vehicle: saline
[9] = dose: 100.0 mg/kg/injection, schedule: Q01DX009 (ip), vehicle: saline
[10] = dose: 200.0 mg/kg/injection, schedule: Q01DX009 (ip), vehicle: saline
[11] = dose: 50.0 mg/kg/injection, schedule: Q01DX005 (ip), vehicle: saline with Tween-80
[12] = dose: 100.0 mg/kg/injection, schedule: Q01DX005 (ip), vehicle: saline with Tween-80
[13] = dose: 200.0 mg/kg/injection, schedule: Q01DX005 (ip), vehicle: saline with Tween-80
[14] = dose: 60.0 mg/kg/injection, schedule: Q01DX005 (ip), vehicle: Klucel (hydroxypropylcellulose) (HPC)
[15] = dose: 120.0 mg/kg/injection, schedule: Q01DX005 (ip), vehicle: Klucel (hydroxypropylcellulose) (HPC)
[16] = dose: 240.0 mg/kg/injection, schedule: Q01DX005 (ip), vehicle: Klucel (hydroxypropylcellulose) (HPC)
[17] = dose: 25.0 mg/kg/injection, schedule: Q01DX009 (ip), vehicle: other

Measured: T/C

CC1=CCC2C(C)(C)CCCC2(C)C1COC1OC(OCC2C(C)=CCC3C(C)(C)CCCC23C)C2C1=CCC1C(C)(C)CCCC21C (configuration not stated)
inactive: dose: 15.0 mg/kg/injection, schedule: Q01DX009 (ip), vehicle: Klucel (hydroxypropylcellulose) (HPC) 96 % of control | dose: 30.0 mg/kg/injection, schedule: Q01DX009 (ip), vehicle: Klucel (hydroxypropylcellulose) (HPC) 102 % of control | dose: 60.0 mg/kg/injection, schedule: Q01DX009 (ip), vehicle: Klucel (hydroxypropylcellulose) (HPC) 93 % of control | dose: 120.0 mg/kg/injection, schedule: Q01DX009 (ip), vehicle: Klucel (hydroxypropylcellulose) (HPC) 94 % of control

NC1[N-]C(C2CCCC[N-]2)CC2CCCCC21.NC1[N-]C(C2CCCC[N-]2)CC2CCCCC21.O=[N+]([O-])O.[Cu+] (configuration not stated)
inactive: dose: 6.25 mg/kg/injection, schedule: Q04DX009 (ip), vehicle: suspension in saline 98 % of control | dose: 12.5 mg/kg/injection, schedule: Q04DX009 (ip), vehicle: suspension in saline 103 % of control | dose: 25.0 mg/kg/injection, schedule: Q04DX009 (ip), vehicle: suspension in saline 113 % of control

COc1nc(C(O)C2OC(C)(C)OCC2O)[nH]c1C#N (configuration not stated)
inactive: [1] 106 % of control | [2] 102 % of control and 91 % of control | [3] 103 % of control and 110 % of control

O=C1c2ccccc2S(=O)(=O)N1CCN(CCN1C(=O)c2ccccc2S1(=O)=O)c1ccccc1
inactive: [1] 92 % of control | [2] 100 % of control | [3] 100 % of control

COc1ccc(OC(=O)Nc2ccc(Cl)c(C(F)(F)F)c2)c(Cl)c1
inactive: [4] 100 % of control | [5] 94 % of control | [6] 88 % of control and 95 % of control | [7] 96 % of control | dose: 25.0 mg/kg/injection, schedule: Q01DX009 (ip), vehicle: saline 93 % of control | dose: 100.0 mg/kg/injection, schedule: Q01DX009 (ip), vehicle: saline + alcohol 101 % of control | dose: 200.0 mg/kg/injection, schedule: Q01DX009 (ip), vehicle: saline + alcohol 100 % of control

CC(C)=CCC/C(C)=C/CC1=C(O)c2ccccc2C(=O)C1=O
inactive: [4] 98 % of control | [5] 100 % of control | [6] 100 % of control | [7] 104 % of control and 94 % of control

CC1Cn2c(nc3sc4c(c3c2=O)CCCC4)S1 (configuration not stated)
inactive: [1] 104 % of control | [2] 97 % of control | [3] 106 % of control

Nc1c(I)cc(CC(N)C(=O)O)cc1I (configuration not stated)
inactive: [8] 94 % of control | [9] 86 % of control | [10] 89 % of control

COC(=O)c1cc(O)c(O)c(O)c1
inactive: [11] 105 % of control | [12] 108 % of control | [13] 119 % of control

CC(=O)NC(CCc1ccc(Cl)c(Cl)c1)c1cccc(O)c(=O)c1 (configuration not stated)
inactive: dose: 12.5 mg/kg/injection, schedule: Q01DX009 (ip), vehicle: Klucel (hydroxypropylcellulose) (HPC) 105 % of control and 110 % of control | dose: 25.0 mg/kg/injection, schedule: Q01DX009 (ip), vehicle: Klucel (hydroxypropylcellulose) (HPC) 106 % of control and 122 % of control

COC1(OC)C(c2ccccc2)C(C#N)(S(=O)(=O)c2ccccc2)C1(OC)OC (configuration not stated)
inactive: [14] 100 % of control | [15] 98 % of control | [16] 100 % of control

CCCCc1ccc(C)c(O)c1
inactive: dose: 50.0 mg/kg/injection, schedule: Q01DX009 (ip), vehicle: saline with Tween-80 110 % of control | dose: 100.0 mg/kg/injection, schedule: Q01DX009 (ip), vehicle: saline with Tween-80 98 % of control

O=C1CSC(=S)N1c1ccc(F)cc1
inactive: dose: 50.0 mg/kg/injection, schedule: Q01DX009 (ip), vehicle: suspension in saline 106 % of control | dose: 100.0 mg/kg/injection, schedule: Q01DX009 (ip), vehicle: suspension in saline 100 % of control | dose: 200.0 mg/kg/injection, schedule: Q01DX009 (ip), vehicle: suspension in saline 90 % of control

CCOC(=O)Nc1ccc(OCC)cc1
inactive: dose: 100.0 mg/kg/injection, schedule: Q04DX003 (ip), vehicle: Klucel (hydroxypropylcellulose) (HPC) 107 % of control | dose: 200.0 mg/kg/injection, schedule: Q04DX003 (ip), vehicle: Klucel (hydroxypropylcellulose) (HPC) 100 % of control | dose: 400.0 mg/kg/injection, schedule: Q04DX003 (ip), vehicle: Klucel (hydroxypropylcellulose) (HPC) 92 % of control

CC(C)=Nn1c(=O)oc2cc(Cl)ccc2c1=O
inactive: [14] 95 % of control | [15] 100 % of control | [16] 93 % of control

CCN(CC)CCCC(C)N1CC2CCCCC2C1 (configuration not stated)
inactive: [11] 106 % of control | [12] 108 % of control | [13] 107 % of control

COC(C)(C)O/N=C(\C[n+]1ccccc1)c1ccccc1
inactive: dose: 3.13 mg/kg/injection, schedule: Q01DX009 (ip), vehicle: water 100 % of control | dose: 6.25 mg/kg/injection, schedule: Q01DX009 (ip), vehicle: water 104 % of control | dose: 12.5 mg/kg/injection, schedule: Q01DX009 (ip), vehicle: water 114 % of control | dose: 25.0 mg/kg/injection, schedule: Q01DX009 (ip), vehicle: water 105 % of control

CC1(C)CN2C(c3ccccc3)=NN(c3ccccc3)C2(C)C1 (configuration not stated)
inactive: dose: 100.0 mg/kg/injection, schedule: Q01DX001 (ip), vehicle: saline with Tween-80 98 % of control | dose: 200.0 mg/kg/injection, schedule: Q01DX001 (ip), vehicle: saline with Tween-80 99 % of control | dose: 400.0 mg/kg/injection, schedule: Q01DX001 (ip), vehicle: saline with Tween-80 100 % of control

Cc1c([N+](=O)[O-])oc2ccc3ccccc3c12
inactive: dose: 60.0 mg/kg/injection, schedule: Q01DX005 (ip), vehicle: saline with Tween-80 113 % of control | dose: 120.0 mg/kg/injection, schedule: Q01DX005 (ip), vehicle: saline with Tween-80 94 % of control | dose: 240.0 mg/kg/injection, schedule: Q01DX005 (ip), vehicle: saline with Tween-80 107 % of control

COc1ccc(CCN(C=O)c2ccc(OC)c(OC)c2)cc1OC
inactive: [17] 115 % of control | dose: 50.0 mg/kg/injection, schedule: Q01DX009 (ip), vehicle: other 108 % of control | dose: 100.0 mg/kg/injection, schedule: Q01DX009 (ip), vehicle: other 102 % of control | dose: 200.0 mg/kg/injection, schedule: Q01DX009 (ip), vehicle: other 108 % of control | dose: 400.0 mg/kg/injection, schedule: Q01DX009 (ip), vehicle: other 96 % of control

CCOC(=O)C(/N=N\c1nn[nH]n1)/N=N/c1ncn[nH]1 (configuration not stated)
inactive: dose: 100.0 mg/kg/injection, schedule: Q01DX001 (ip), vehicle: suspension in saline 102 % of control | dose: 200.0 mg/kg/injection, schedule: Q01DX001 (ip), vehicle: suspension in saline 102 % of control | dose: 400.0 mg/kg/injection, schedule: Q01DX001 (ip), vehicle: suspension in saline 107 % of control

COc1ccc(/C=C2\C(=O)C(c3ccccc3)N(c3ccccc3)C2=O)cc1 (configuration not stated)
inactive: dose: 12.5 mg/kg/injection, schedule: Q04DX002 (ip), vehicle: saline with Tween-80 91 % of control | dose: 25.0 mg/kg/injection, schedule: Q04DX002 (ip), vehicle: saline with Tween-80 92 % of control | dose: 50.0 mg/kg/injection, schedule: Q04DX002 (ip), vehicle: saline with Tween-80 98 % of control

COc1cc(NC(C)CN(CC(C)C)C(C)C)c2ncccc2c1 (configuration not stated)
inactive: dose: 50.0 mg/kg/injection, schedule: Q01DX005 (ip), vehicle: saline 104 % of control | dose: 100.0 mg/kg/injection, schedule: Q01DX005 (ip), vehicle: saline 98 % of control

CCOC(=O)CC1(C)NCCS1 (configuration not stated)
inactive: [8] 96 % of control | [9] 99 % of control | [10] 96 % of control

O=Nc1c(O)c(Cl)cc2ccccc12
inactive: dose: 3.12 mg/kg/injection, schedule: Q01DX005 (ip), vehicle: saline with Tween-80 101 % of control | dose: 6.25 mg/kg/injection, schedule: Q01DX005 (ip), vehicle: saline with Tween-80 103 % of control

NC1CCCC1C(=O)O (configuration not stated)
inactive: [8] 96 % of control | [9] 100 % of control | [10] 102 % of control

CCN(CC)c1ccc2nc3ccc(N=Nc4ccc(O)cc4)cc3[n+](-c3ccccc3)c2c1
inactive: [11] 118 % of control | [12] 114 % of control

CC(=O)O[C@@H]1[C@@H](O)C2=C3[C@]4(C)[C@@H]1C(C)(C)C(=O)C[C@@H]4[C@]3(O)[C@H](OC(C)=O)[C@@]1(C[C@@H]1C)C2=O
inactive: [17] 118 % of control | dose: 25.0 mg/kg/injection, schedule: Q01DX009 (ip), vehicle: saline with Tween-80 115 % of control
